{"source": "patent US6946469B2", "about": "“Cyanamide, alkoxyamino, and urea derivatives of 4,4-disubstituted-3,4-dihydro-2(1H)-quinazolinones as HIV reverse transcriptase inhibitors” (Bristol-Myers Squibb Pharma Company, priority 2001, dated 2005)", "system": "HIV-1 (RF)", "experiment": "HIV RNA assay: microplate based compound evaluation in HIV-1 infected MT-2 cells", "assay_type": "cell-based", "details": "Human immunodeficiency virus 1, MT2, 72 h; HIV-1 (RF) infected MT-2 cells, 3 days of culture; virus dilution selected to give this value (inoculum standardisation); read-out: IC90 value (concentration of compound required to reduce the HIV RNA level by 90%)", "description": "MT-2 and MT-4 cells were maintained in RPMI 1640 supplemented with 5% fetal calf serum (FCS) for MT-2 cells or 10% FCS for MT-4 cells, 2 mM L-glutamine and 50 μg/mL gentamycin, all from Gibco. HIV-1 RF was propagated in MT-4 cells in the same medium. Virus stocks were prepared approximately 10 days after acute infection of MT-4 cells and stored as aliquots at −70° C. Infectious titers of HIV-1 (RF) stocks were 1-3×10^7 PFU (plaque forming units)/mL as measured by plaque assay on MT-2 cells (see below). Each aliquot of virus stock used for infection was thawed only once.\nFor evaluation of antiviral efficacy, cells to be infected were subcultured one day prior to infection. […]\nCell lysates or purified RNA in 3 M or 5 M GED were mixed with 5 M GED and capture probe to a final guanidinium isothiocyanate concentration of 3 M and a final biotin oligonucleotide concentration of 30 nM. […] Immobilized alkaline phosphatase activity was detected by addition of 100 μL of 0.2 mM 4-methylumbelliferyl phosphate (MUBP, JBL Scientific) in buffer δ(2.5 M diethanolamine pH 8.9 (JBL Scientific), 10 mM MgCl2, 5 mM zinc acetate dihydrate and 5 mM N-hydroxyethyl-ethylene-diamine-triacetic acid). […] Fluorescence at […] was measured using a microplate fluorometer (Dynateck) exciting at […]. […]", "data": [{"smiles": "Nc1ccn([C@H]2CC[C@@H](CO)O2)c(=O)n1", "note": "[ddC, 2′,3′-dideoxycytidine]", "values": [{"measurement": "IC90", "value": 0.2, "unit": "µg/mL"}]}]}
